Assay results taken from patent publication US20240336566A1, “CRYSTALLINE FORMS OF A COMPOUND FOR THE TARGETED DEGRADATION OF THE ANDROGEN RECEPTOR” (Arvinas Operations, Inc., priority 2023, published 2024).
Blank lines part the entries; values can stand above or below the compound they belong to.

Tests used:
Format in all cases: physicochemical
[1] = Co-crystal screen: XRPD post temperature cycling and post storage at 40° C./75% RH;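 on XRPD results, primary co-crystal screen post temperature cycling: value is the Compound A free base XRPD pattern number and 9 means a potential new one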; details: for XRPD results, primary co-crystal screen post storage at 40° C./75% RH / XRPD results, primary co-crystal screen post temperature cycling: Compound A + 1.05 eq. co-former (= label); for XRPD form post storage at 40° C./75% RH: ca. 24 or ca. 30 hours
[2] = 7-day stability assessment (appearance, HPLC, XRPD); details: for Reported Purity / Total impurities: HPLC; for purity retained after stability storage (HPLC): after 7 days at 40° C./75% RH (open vial), 80° C. (closed vial), ambient light (closed vial)
Method: The material was gently ground to release any agglomerates and loaded onto a multi-well plate with Kapton or Mylar polymer film to support the sample. […] Data were visualized and images generated using the HighScore Plus 4.7 desktop application (PANalytical, 2θ17).
They all remained white or off-white solids. • XRPD analysis determined the patterns were retained.

[3] = Thermodynamic solubility determination in buffers (HPLC); details: for 0 Hr Solubility / 4 Hr Solubility / 24 Hr Solubility: 25° C.
Text: No clear solubility advantage of the salts was noted over Compound A free base.

[4] = Primary salt screen: XRPD post temperature cycling/evaporation, post drying and post storage at 40° C./75% RH; details: post drying and 40° C./75% RH
Method: • 30 mg samples of Compound A were weighed out into 2 mL screw cap sample vials for 96 experiments. To these, 200 μL of the appropriate solvent system was added to dissolve the material or form a slurry. See Table 16 for the solvent systems selected for the primary salt screen.
• 1.05 eq. of solid counterions were weighed into six separate vials each and 1 molar stock solutions were prepared for liquid counterions in 5 mL of THF. See Table 17 for selected counterions and mass/volume needed for 1.05 eq. additions. • 100 μL of the appropriate solvent was added to the solid counterions.
The solution/slurry of counterion was added to the solution/slurry of the free base material.
• The samples were placed in an incubator shaker to temperature cycle between ambient and 40° C. over 4 hour cycles. • After ca. 72 hours of temperature cycling, observations were noted, see Table 19.
• Where slurries were obtained, the solids were isolated via centrifugation. Solids and gels were analyzed by XRPD.
Any samples that were clear solutions after temperature cycling were left to evaporate at ambient conditions. See Table 20 for observations made after evaporation. Solids obtained through evaporation were analyzed by XRPD.
• The samples obtained from temperature cycling were dried under vacuum at 40° C. for ca. 20 hours while the samples obtained from evaporation were dried under vacuum at 40° C. for ca. 4 hours. […]

[5] = Buffer pH 1.2, cf concentration of free base, listed as Compound A Tosylate
[6] = Buffer pH 4.0, LOQ 0.00025 mg/mL
[7] = buffer, 25 °C, pH 3, aqueous buffer, thermodynamic from solid, Buffer pH 3.0, LOQ 0.00025 mg/mL
[8] = input material before storage (baseline of the stability assessment)
[9] = Buffer pH 1.2, cf concentration of free base, listed as Compound A Besylate
[10] = Buffer pH 3.0, LOQ 0.00025 mg/mL

XRPD results, primary co-crystal screen post storage at 40° C./75% RH ([1]; 1,4-Dioxane): 4
XRPD results, primary co-crystal screen post temperature cycling ([1]; 1,4-Dioxane): 4
XRPD results, primary co-crystal screen post storage at 40° C./75% RH ([1]; DCM:Methanol (50:50 % v/v)): 2
XRPD results, primary co-crystal screen post temperature cycling ([1]; DCM:Methanol (50:50 % v/v)): 2
XRPD results, primary co-crystal screen post storage at 40° C./75% RH ([1]; DMSO:Water (50:50 % v/v)): 2
XRPD results, primary co-crystal screen post temperature cycling ([1]; DMSO:Water (50:50 % v/v)): 2
XRPD results, primary co-crystal screen post storage at 40° C./75% RH ([1]; THF): 1
XRPD results, primary co-crystal screen post temperature cycling ([1]; THF): 1
SMILES: NC(=O)c1cccnc1 [Nicotinamide]

HPLC purity ([2]; 7 days at 40° C./75% RH (open vial)): 97.30 % relative area
Reported Purity ([2]; after 7 days at 80° C.): 96.76 Area %
Total impurities ([2]; after 7 days at 80° C.): 3.24 Area %
Reported Purity ([2]; after 7 days at ambient): 97.09 Area %
Total impurities ([2]; after 7 days at ambient): 2.91 Area %
Total impurities (HPLC) ([2]; after 7 days at 40° C./75% RH): 2.70 Rel. Area %
purity retained after stability storage (HPLC) [2]: > 96 % relative area
XRPD pattern after stability storage ([2]; after 7 days at each stability condition): gained an additional peak
Total impurities (HPLC) ([2]; before stability testing): 2.56 Rel. Area %
HPLC purity ([2]; before stability testing (condition N/A)): 97.44 % relative area
0 Hr Solubility [3, 5]: 12.2 µg/mL
4 Hr Solubility [3, 5]: 15.4 µg/mL
24 Hr Solubility [3, 5]: 6.3 µg/mL
0 Hr Solubility [3, 6]: <0.25 µg/mL
4 Hr Solubility [3, 6]: <0.25 µg/mL
24 Hr Solubility ([3]; Buffer pH 4.0, LOQ 0.00025 mg/mL, listed as Compound A Tosylate): <0.25 µg/mL
solubility at 0 h [3, 7]: < 0.25 µg/mL
solubility at 4 h [3, 7]: < 0.25 µg/mL
solubility at 24 h [3, 7]: < 0.25 µg/mL
assessment of salt form in the primary salt screen [4]: stable hydrates
SMILES: COc1cc(O[C@H]2C(C)(C)[C@H](NC(=O)c3ccc(N4CCC(CN5CCN(c6ccc(C(=O)N[C@H]7CCC(=O)NC7=O)c(F)c6)CC5)CC4)cc3)C2(C)C)ccc1C#N [tosylate Pattern 1]

Reported Purity ([2]; after 7 days at 40° C./75% RH): 97.31 Area %
Total impurities ([2]; after 7 days at 40° C./75% RH): 2.69 Area %
Reported Purity ([2]; after 7 days at 80° C.): 97.56 Area %
Total impurities ([2]; after 7 days at 80° C.): 2.44 Area %
Reported Purity ([2]; after 7 days at ambient): 97.17 Area %
Total impurities ([2]; after 7 days at ambient): 2.83 Area %
Reported Purity [2, 8]: 97.33 Area %
Total impurities [2, 8]: 2.67 Area %
purity retained after stability storage (HPLC) [2]: > 97 % relative area
0 Hr Solubility [3, 9]: 13.3 µg/mL
4 Hr Solubility [3, 9]: 7.3 µg/mL
24 Hr Solubility [3, 9]: 9.3 µg/mL
0 Hr Solubility [3, 10]: <0.25 µg/mL
4 Hr Solubility [3, 10]: <0.25 µg/mL
24 Hr Solubility [3, 10]: <0.25 µg/mL
0 Hr Solubility [3, 6]: <0.25 µg/mL
4 Hr Solubility [3, 6]: <0.25 µg/mL
24 Hr Solubility ([3]; Buffer pH 4.0, LOQ 0.00025 mg/mL, listed as Compound A Besylate): < 0.25 µg/mL
assessment of salt form in the primary salt screen [4]: stable hydrates
SMILES: COc1cc(O[C@H]2C(C)(C)[C@H](NC(=O)c3ccc(N4CCC(CN5CCN(c6ccc(C(=O)N[C@H]7CCC(=O)NC7=O)c(F)c6)CC5)CC4)cc3)C2(C)C)ccc1C#N [besylate Pattern 1]

XRPD results, primary co-crystal screen post storage at 40° C./75% RH ([1]; 1,4-Dioxane): 4
XRPD results, primary co-crystal screen post temperature cycling ([1]; 1,4-Dioxane): 9
XRPD results, primary co-crystal screen post storage at 40° C./75% RH ([1]; DCM:Methanol (50:50 % v/v)): 2
XRPD results, primary co-crystal screen post temperature cycling ([1]; DCM:Methanol (50:50 % v/v)): 2
XRPD results, primary co-crystal screen post storage at 40° C./75% RH ([1]; THF): 1
XRPD results, primary co-crystal screen post temperature cycling ([1]; THF): 1
SMILES: NC(N)=O [Urea]

XRPD results, primary co-crystal screen post storage at 40° C./75% RH ([1]; 1,4-Dioxane): 4
XRPD results, primary co-crystal screen post temperature cycling ([1]; 1,4-Dioxane): 9
XRPD results, primary co-crystal screen post storage at 40° C./75% RH ([1]; DCM:Methanol (50:50 % v/v)): 2
XRPD results, primary co-crystal screen post temperature cycling ([1]; DCM:Methanol (50:50 % v/v)): 2
XRPD results, primary co-crystal screen post storage at 40° C./75% RH ([1]; THF): 1
XRPD results, primary co-crystal screen post temperature cycling ([1]; THF): 1
SMILES: O=C(O)[C@@H]1CCCN1 [L-Proline]

XRPD results, primary co-crystal screen post storage at 40° C./75% RH ([1]; 1,4-Dioxane): 4
XRPD results, primary co-crystal screen post temperature cycling ([1]; 1,4-Dioxane): 9
XRPD results, primary co-crystal screen post storage at 40° C./75% RH ([1]; DCM:Methanol (50:50 % v/v)): 2
XRPD results, primary co-crystal screen post temperature cycling ([1]; DCM:Methanol (50:50 % v/v)): 2
XRPD results, primary co-crystal screen post storage at 40° C./75% RH ([1]; THF): 1
XRPD results, primary co-crystal screen post temperature cycling ([1]; THF): 1
SMILES: N[C@@H](Cc1c[nH]cn1)C(=O)O [L-Histidine]

XRPD form post storage at 40° C./75% RH [1]: converts to Pattern 4
XRPD form post storage at 40° C./75% RH ([1]; listed as Pattern 9): converted to free base Pattern 4
SMILES: COc1cc(O[C@H]2C(C)(C)[C@H](NC(=O)c3ccc(N4CCC(CN5CCN(c6ccc(C(=O)N[C@H]7CCC(=O)NC7=O)c(F)c6)CC5)CC4)cc3)C2(C)C)ccc1C#N [free base Pattern 9]
